Experimental data reported in patent publication US4870002A, “Method of prevention of oxidative injury to cells” (priority 1985, dated 1989).
Read-outs that look alike come from different tables or passages of the source.

System: Con A-Lu-BSA labeled pig RBCs
Test: Chemiluminescence of Con A-Lu-BSA labeled pig RBCs with exogenous hydrogen peroxide
Format: cell-based
Description: The luminol-bovine serum albumin (Lu-BSA) complex was made by mixing 2 mg luminol (5-amino-2, 3-dihydrophthalazine-1,4-dione), 0.2 ml of 2 mg BSA/ml PBS (pH 6.9), and 1.6 ml of PBS, pH 6.9. The preparation was then passed through a 0.22 μm nitrocellulose filter to remove insoluble luminol. Next, 0.2 ml of 2 mg Con A/ml of PBS, pH 6.9, was added to the filtrate. After gentle mixing, 10 μl of 25% glutaraldehyde were added. The solution was incubated in the refrigerator for 1 hour. To stop the conjugation, 100 mg of glycine was added to the solution. The solution was then pressed through a 48 ml column of dextran gel filtration beads equilibrated with PBS, pH 6.9. The gel exclusion size was greater than 5000 for globular molecules. The fractions were collected and tested for luminescent labeling activity.
One ml of supernatant of each 10 ml aliquot of 1:20 diluted RBCs was replaced with 1 ml of Con A-Lu-BSA solution as previously described. The preparation was incubated for 15 min. at 37° C. in a water-jacketedcell culture incubator. The cells were then pelleted in a clinical centrifuge, resuspended in PBS, and washed in the same manner two additional times. The washed cells were maintained at 4° C. until used the same day of preparation.
Following exposure to chemical or physical stressors, 100 μl of the RBC suspension was added to 500 μl of PBS, pH 7.4, containing 0.3% hydrogen peroxide, in a scintillation vial. To activate the sample, 100 μl of 0.1N NaOH were added to the vial in place in an ATP photometer (Integrating ATP Photometer Model 3000, Science Applications, San Diego, California 92121) The photometer was set to a dark count of 1 count/30 second at a sensitivity of 600 at room temperature (approximately 23° C.). All counts followed a 5 second delay period to allow for stabilization of the photomultiplier. The counts are reported as counts/30 sec.
All essays were run at room temperature. The post-collection age of those cells was 11-18 days and the cells were used the day of labeling. […] Pyruvate (1.43 mM), an autoxidizable substrate, doubled the CL of labeled cells.

In the case of `Nc1cc(C[C@H](N)C(=O)O)ccc1O` [3-aminotyrosine, 3-amino-L-tyrosine], the “CL (30 sec)” value (160 μM) is reported as 5,430 ± 1,266 counts/30 sec, the “CL (30 sec)” value (1.44 mM) is reported as 844 ± 165 counts/30 sec and the activity at 160 µM (Sus scrofa, Erythrocyte, 160 μM, read-out: Percent control) is reported as 18%. It also gave an activity at 1440 µM (Sus scrofa, Erythrocyte, 1.44 mM, read-out: Percent control) of 3%, an activity at 11500 µM (Sus scrofa, Erythrocyte, pretreatment 11.5 mM, 30 min at room temperature, read-out: Percent control) of 74% and an inhibition at 160 µM (Sus scrofa, 160 μM, read-out: inhibition of CL of labeled RBCs) of 82%. For the same molecule, the inhibition at 1440 µM (Sus scrofa, 1.44 mM, read-out: inhibition of CL of labeled RBCs) was 97%, the inhibition at 1440 µM (Sus scrofa, 1.44 mM, read-out: inhibition of the natural CL) was 94% and the inhibition at 11500 µM (Sus scrofa, pretreatment of labeled cells with 11.5 mM, 30 min at room temperature, read-out: inhibition of CL) was 26%. For the same molecule, the “CL (30 sec)” value (pretreatment 11.5 mM, 30 min at room temperature) was 22,457 ± 2,128 counts/30 sec.
